According to ChEMBL document CHEMBL1201862, “PubChem BioAssay data set” (2004):
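Briefly, cells in 96-well plates were exposed to five compound concentrations for 48 h, and endpoints were estimated by linear interpolation. GI50 is the concentration that inhibits growth by half.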 Activity calls are given as the source filed them. Rule as the data show it: active = GI50 up to about 1.1 µM and inactive = higher.

Assays:
Assay in all cases: inhibition of tumour cell growth, NCI panel, 48 h
M19-MEL = test system: M19-MEL
DLD-1 = test system: DLD-1
DMS-114 = test system: DMS-114
KM-20L2 = test system: KM-20L2
HOP-18 = test system: HOP-18
LXFL 529 = test system: LXFL 529
SNB-78 = test system: SNB-78
BT-549 = test system: BT-549
RXF 631 = test system: RXF 631

With `CC1(c2cccc3c2C2(O)C=CC4(CCC32)OCCO4)OCCO1` (centres undefined) the GI50 (M19-MEL) was > 100 µM (inactive), the GI50 (DLD-1) was > 100 µM (inactive) and the GI50 (DMS-114) was > 100 µM (inactive). For the same compound, the GI50 (KM-20L2) was > 100 µM (inactive), the GI50 (HOP-18) was > 100 µM (inactive) and the GI50 (LXFL 529) was > 100 µM (inactive). For the same compound, the GI50 (SNB-78) was > 100 µM (inactive).
For `CC1(C)C(CC(=O)O)CCCC1CC(=O)O` (centres undefined), the GI50 (BT-549) was > 100 µM (inactive).
In the case of `C#CCN1CCN(C(=S)N/N=C(\C)c2ccccn2)CC1`, the GI50 (DLD-1) was 0.01 µM (active), the GI50 (BT-549) was 1.49 µM (inactive) and the GI50 (DMS-114) was 0.01 µM (active). For the same compound, the GI50 (KM-20L2) was < 0.0248 µM (active), the GI50 (HOP-18) was 2.72 µM (inactive) and the GI50 (LXFL 529) was 0.001 µM (active). For the same compound, the GI50 (SNB-78) was 5.37 µM (inactive).
`CCN(CC)C(=O)CCn1cc(F)c(=O)[nH]c1=O` was tested, and the GI50 (M19-MEL) was > 100 µM (inactive), the GI50 (DMS-114) was > 100 µM (inactive) and the GI50 (KM-20L2) was > 100 µM (inactive). For the same compound, the GI50 (LXFL 529) was > 100 µM (inactive) and the GI50 (SNB-78) was > 100 µM (inactive).
`CC1(C)OC2OC(/C=C/[N+](=O)[O-])C3OC(C)(C)OC3C2O1` (centres undefined) was tested, and the GI50 (M19-MEL) was 14.2 µM (inactive), the GI50 (DLD-1) was 1.61 µM (inactive) and the GI50 (DMS-114) was 18.6 µM (inactive). For the same compound, the GI50 (KM-20L2) was 19.5 µM (inactive), the GI50 (HOP-18) was 23.1 µM (inactive) and the GI50 (LXFL 529) was 2.76 µM (inactive). For the same compound, the GI50 (SNB-78) was 14.2 µM (inactive).
In the case of `O=C(O)CCNCC(=O)O`, the GI50 (BT-549) was > 100 µM (inactive).
With `O=[N+]([O-])c1ccc(/C(=N/c2ccccc2)SS/C(=N\c2ccccc2)c2ccc([N+](=O)[O-])o2)o1` the GI50 (BT-549) was 1.75 µM (inactive).
For `COc1ccc(-c2cc(-c3ccc(Nc4ccnc5cc(Cl)ccc45)cc3)[nH]c(=O)c2C#N)c2ccccc12`, the GI50 (BT-549) was 16.4 µM (inactive).
With `CC1=CC23C(COC(=O)C24CO4)C(C(=O)O)=CC3C1C` (centres undefined) the GI50 (BT-549) was 4.9 µM (inactive).
For `Nc1nc(N)c2cc(-c3ccccc3)cnc2n1`, the GI50 (BT-549) was 16.6 µM (inactive).
For `O=C(CCc1cc(-c2ccc(F)cc2)n[nH]1)N(Cc1ccccc1)Cc1ccccc1`, the GI50 (M19-MEL) was > 100 µM (inactive), the GI50 (DMS-114) was > 100 µM (inactive) and the GI50 (KM-20L2) was > 100 µM (inactive). For the same compound, the GI50 (HOP-18) was > 100 µM (inactive), the GI50 (LXFL 529) was > 100 µM (inactive) and the GI50 (SNB-78) was > 100 µM (inactive).
`CC1=C(/C=C/C(C)=C/C=C/C(C)=C/C(=O)OCC2OC(n3cc(F)c(=O)[nH]c3=O)CC2OC(=O)/C=C(C)/C=C/C=C(C)/C=C/C2=C(C)CCCC2(C)C)C(C)(C)CCC1` (centres undefined) was tested, and the GI50 (BT-549) was 29.6 µM (inactive).
With `OCC(O)CNc1ncnc2ccccc12` (centres undefined) the GI50 (BT-549) was > 100 µM (inactive).
With `CC(C)CCC[C@@H](C)C1CCC2[C@@H]3CCC4CC(CCC=C(c5cc(Cl)c(OC(=O)c6ccccc6)c(C(=O)O)c5)c5cc(Cl)c(OC(=O)c6ccccc6)c(C(=O)O)c5)CC[C@]4(C)C3CC[C@@]21C` (some centres undefined) the GI50 (BT-549) was > 100 µM (inactive).
In the case of `CCN(CC)CCN(C)CC(C)(C)C(=O)/C=C/c1ccccc1`, the GI50 (M19-MEL) was 11.6 µM (inactive), the GI50 (DLD-1) was 5.46 µM (inactive) and the GI50 (DMS-114) was 6.58 µM (inactive). For the same compound, the GI50 (KM-20L2) was 11.1 µM (inactive), the GI50 (HOP-18) was 15.9 µM (inactive) and the GI50 (LXFL 529) was 12.3 µM (inactive).
`Cn1cc(NC(=O)Nc2cc(C(=O)Nc3cc(C(=O)Nc4cc(S(=O)(=O)O)c5cc(S(=O)(=O)O)cc(S(=O)(=O)O)c5c4)n(C)c3)n(C)c2)cc1C(=O)Nc1cc(C(=O)Nc2cc(S(=O)(=O)O)c3cc(S(=O)(=O)O)cc(S(=O)(=O)O)c3c2)n(C)c1` was tested, and the GI50 (BT-549) was > 100 µM (inactive).
For `CC(C)NC(=O)OCc1c(COC(=O)NC(C)C)c(-c2ccc[n+](COC(=O)CC(C)(C)C)c2)n2c1CCC2`, the GI50 (BT-549) was > 100 µM (inactive).
`OC1(C(Sc2cc(C(F)(F)F)cc(C(F)(F)F)c2)Sc2cc(C(F)(F)F)cc(C(F)(F)F)c2)C=CCCC1` (centres undefined) was tested, and the GI50 (BT-549) was 3.35 µM (inactive).
With `COc1ccc(C(=O)O)c(Cc2ccc3ccccc3c2)c1` the GI50 (M19-MEL) was > 100 µM (inactive), the GI50 (DLD-1) was > 100 µM (inactive) and the GI50 (DMS-114) was > 100 µM (inactive). For the same compound, the GI50 (KM-20L2) was > 100 µM (inactive), the GI50 (HOP-18) was > 100 µM (inactive) and the GI50 (LXFL 529) was > 100 µM (inactive). For the same compound, the GI50 (SNB-78) was > 100 µM (inactive).
`COC(=O)[C@]1(C)CCC[C@]2(C)C3CC4OOC3(C=C4C(C)(C)O)CCC21` (some centres undefined) was tested, and the GI50 (M19-MEL) was 43 µM (inactive), the GI50 (DLD-1) was 28.4 µM (inactive) and the GI50 (DMS-114) was 30.8 µM (inactive). The GI50 (KM-20L2) was 35.8 µM (inactive), the GI50 (RXF 631) was > 100 µM (inactive) and the GI50 (LXFL 529) was 22.2 µM (inactive). The GI50 (SNB-78) was 30.8 µM (inactive).
For `CC(C)CCC1(CCN)C(=O)NC(=O)NC1=O`, the GI50 (BT-549) was > 100 µM (inactive).
With `N#CC(C(=N/NC(N)=S)/C(=N/NC(N)=S)C(C#N)c1ccc(Cl)cc1)c1ccc(Cl)cc1` (centres undefined) the GI50 (M19-MEL) was > 100 µM (inactive), the GI50 (DLD-1) was 34.1 µM (inactive) and the GI50 (DMS-114) was > 100 µM (inactive). For the same compound, the GI50 (KM-20L2) was > 100 µM (inactive), the GI50 (HOP-18) was 94.2 µM (inactive) and the GI50 (LXFL 529) was 49.7 µM (inactive). For the same compound, the GI50 (SNB-78) was 35.6 µM (inactive).
For `N#Cc1c(-c2ccc(Cl)cc2)c(C#N)c(=O)n(NS(=O)(=O)c2ccccc2)c1-c1ccccc1`, the GI50 (BT-549) was > 25 µM (inactive).
For `COc1ccc(C(C)Nc2cc(OC)c(OC)c(OC)c2)cc1` (centres undefined), the GI50 (M19-MEL) was 4.75 µM (inactive), the GI50 (DLD-1) was 5.81 µM (inactive) and the GI50 (KM-20L2) was 2.57 µM (inactive). The GI50 (HOP-18) was > 100 µM (inactive), the GI50 (LXFL 529) was 6.38 µM (inactive) and the GI50 (SNB-78) was 4.08 µM (inactive).
